Reference: the NIST ThermoML archive (doi:10.1016/j.jct.2019.02.011)

Assay: xn = mol fraction of the nth substance listed
Details: Liquid, Vibrating tube method

COC(=O)OC [dimethyl carbonate] + CCO
mass density [kg/m3]
Details	100 kPa	5000 kPa	10000 kPa	15000 kPa	20000 kPa	25000 kPa	30000 kPa	35000 kPa	40000 kPa
298.15 K, x1 = 0.0252	–	–	–	–	–	814.77	818.23	821.35	824.85
298.15 K, x1 = 0.0506	–	–	–	–	–	824.39	827.85	831.03	834.55
298.15 K, x1 = 0.0757	–	–	–	–	–	833.72	837.24	840.42	843.95
298.15 K, x1 = 0.1003	–	–	–	–	–	842.57	846.09	849.38	852.92
298.15 K, x1 = 0.1508	–	–	–	–	–	860.52	864.11	867.41	871.01
298.15 K, x1 = 0.2	–	–	–	–	–	877.33	880.97	884.34	887.93
298.15 K, x1 = 0.2547	–	–	–	–	–	895.44	899.14	902.52	906.18
298.15 K, x1 = 0.3002	–	–	–	–	–	910.03	913.74	917.13	920.8
298.15 K, x1 = 0.3498	–	–	–	–	–	925.47	929.2	932.65	936.29
298.15 K, x1 = 0.4	–	–	–	–	–	940.64	944.38	947.84	951.52
298.15 K, x1 = 0.449	–	–	–	–	–	954.89	958.68	962.16	965.81
298.15 K, x1 = 0.4996	–	–	–	–	–	969.11	972.91	976.39	980.05
298.15 K, x1 = 0.5507	–	–	–	–	979.03	982.99	986.8	990.35	994.01
298.15 K, x1 = 0.6005	–	–	–	–	992.03	996	999.82	1003.37	1006.99
298.15 K, x1 = 0.6455	–	–	–	–	1003.31	1007.29	1011.17	1014.73	1018.41
298.15 K, x1 = 0.6931	–	–	–	–	1014.9	1018.88	1022.77	1026.34	1030.03
298.15 K, x1 = 0.7502	–	–	–	–	1028.23	1032.23	1036.12	1039.75	1043.4
298.15 K, x1 = 0.8009	–	–	–	–	1039.69	1043.7	1047.6	1051.24	1054.89
298.15 K, x1 = 0.8505	–	–	–	–	1050.49	1054.48	1058.39	1062.04	1065.71
298.15 K, x1 = 0.9008	–	–	–	–	1061.05	1065.07	1068.99	1072.64	1076.29
298.15 K, x1 = 0.9255	–	–	–	–	1066.12	1070.15	1074.07	1077.73	1081.38
298.15 K, x1 = 0.9477	–	–	–	–	1070.6	1074.63	1078.55	1082.21	1085.85
298.15 K, x1 = 0.9735	–	–	–	–	1075.75	1079.76	1083.68	1087.3	1090.94
298.15 K, x1 = 1	–	–	–	–	1080.9	1084.89	1088.82	1092.44	1096.04
303.15 K, x1 = 0.0252	790.52	794.85	799.09	803.19	807.07	810.85	814.45	817.99	821.19
303.15 K, x1 = 0.0506	799.8	804.24	808.54	812.68	816.57	820.4	824.05	827.65	830.86
303.15 K, x1 = 0.0757	808.95	813.38	817.69	821.83	825.78	829.67	833.32	836.92	840.19
303.15 K, x1 = 0.1003	817.66	822.15	826.46	830.66	834.61	838.5	842.15	845.76	849.04
303.15 K, x1 = 0.1508	835.2	839.75	844.12	848.37	852.39	856.28	859.99	863.66	867.01
303.15 K, x1 = 0.2	851.75	856.29	860.68	864.98	869.06	873.01	876.77	880.45	883.83
303.15 K, x1 = 0.2547	869.58	874.18	878.59	882.88	886.98	890.99	894.76	898.44	901.89
303.15 K, x1 = 0.3002	883.92	888.57	893.03	897.33	901.44	905.46	909.28	912.97	916.44
303.15 K, x1 = 0.3498	899.15	903.81	908.28	912.64	916.76	920.83	924.6	928.31	931.85
303.15 K, x1 = 0.4	914.01	918.72	923.21	927.61	931.75	935.83	939.65	943.37	946.93
303.15 K, x1 = 0.449	928.1	932.82	937.32	941.72	945.87	949.95	953.78	957.5	961.08
303.15 K, x1 = 0.4996	942.11	946.83	951.34	955.75	959.95	964.05	967.88	971.61	975.21
303.15 K, x1 = 0.5507	955.78	960.51	965.03	969.44	973.66	977.76	981.64	985.38	989
303.15 K, x1 = 0.6005	968.59	973.37	977.9	982.31	986.54	990.65	994.54	998.28	1001.97
303.15 K, x1 = 0.6455	979.73	984.57	989.11	993.57	997.8	1001.97	1005.86	1009.61	1013.31
303.15 K, x1 = 0.6931	991.23	996.02	1000.62	1005.08	1009.33	1013.44	1017.34	1021.1	1024.81
303.15 K, x1 = 0.7502	1004.42	1009.26	1013.82	1018.28	1022.54	1026.71	1030.61	1034.38	1038.11
303.15 K, x1 = 0.8009	1015.74	1020.59	1025.15	1029.62	1033.88	1038.07	1041.97	1045.74	1049.49
303.15 K, x1 = 0.8505	1026.43	1031.28	1035.85	1040.32	1044.59	1048.83	1052.73	1056.47	1060.22
303.15 K, x1 = 0.9008	1036.88	1041.74	1046.31	1050.81	1055.12	1059.33	1063.26	1067	1070.77
303.15 K, x1 = 0.9255	1041.88	1046.76	1051.32	1055.83	1060.15	1064.37	1068.3	1072.05	1075.83
303.15 K, x1 = 0.9477	1046.34	1051.21	1055.79	1060.28	1064.6	1068.85	1072.75	1076.5	1080.28
303.15 K, x1 = 0.9735	1051.45	1056.32	1060.89	1065.37	1069.67	1073.92	1077.83	1081.57	1085.37
303.15 K, x1 = 1	1056.61	1061.47	1066.02	1070.49	1074.79	1078.99	1082.9	1086.6	1090.4
308.15 K, x1 = 0.0252	785.78	790.2	794.7	798.95	803.01	806.85	810.55	814.13	817.65
308.15 K, x1 = 0.0506	795.01	799.48	804.03	808.34	812.45	816.29	820.04	823.67	827.2
308.15 K, x1 = 0.0757	804.1	808.57	813.12	817.43	821.55	825.44	829.2	832.83	836.41
308.15 K, x1 = 0.1003	812.76	817.27	821.84	826.15	830.31	834.21	837.98	841.6	845.19
308.15 K, x1 = 0.1508	830.19	834.75	839.38	843.74	847.91	851.87	855.69	859.36	862.96
308.15 K, x1 = 0.2	846.57	851.18	855.82	860.24	864.46	868.48	872.26	875.98	879.58
308.15 K, x1 = 0.2547	864.3	868.96	873.61	878.08	882.31	886.33	890.22	893.94	897.55
308.15 K, x1 = 0.3002	878.53	883.23	887.94	892.42	896.65	900.73	904.63	908.34	911.96
308.15 K, x1 = 0.3498	893.6	898.3	903.03	907.51	911.79	915.88	919.79	923.55	927.17
308.15 K, x1 = 0.4	908.35	913.1	917.89	922.37	926.66	930.75	934.72	938.43	942.06
308.15 K, x1 = 0.449	922.34	927.13	931.93	936.46	940.76	944.91	948.88	952.59	956.23
308.15 K, x1 = 0.4996	936.23	941.03	945.84	950.37	954.72	958.88	962.91	966.61	970.26
308.15 K, x1 = 0.5507	949.8	954.65	959.47	964	968.36	972.52	976.56	980.26	983.92
308.15 K, x1 = 0.6005	962.5	967.34	972.17	976.76	981.12	985.34	989.34	993.09	996.75
308.15 K, x1 = 0.6455	973.59	978.43	983.27	987.86	992.27	996.5	1000.55	1004.29	1007.96
308.15 K, x1 = 0.6931	984.98	989.86	994.71	999.31	1003.72	1007.95	1012.02	1015.76	1019.43
308.15 K, x1 = 0.7502	998.06	1002.99	1007.85	1012.45	1016.86	1021.1	1025.17	1028.91	1032.59
308.15 K, x1 = 0.8009	1009.32	1014.25	1019.12	1023.72	1028.14	1032.39	1036.46	1040.2	1043.88
308.15 K, x1 = 0.8505	1019.95	1024.88	1029.76	1034.36	1038.78	1043.04	1047.12	1050.86	1054.54
308.15 K, x1 = 0.9008	1030.34	1035.27	1040.16	1044.76	1049.19	1053.46	1057.58	1061.29	1064.96
308.15 K, x1 = 0.9255	1035.32	1040.27	1045.13	1049.75	1054.19	1058.45	1062.57	1066.29	1069.95
308.15 K, x1 = 0.9477	1039.72	1044.68	1049.54	1054.15	1058.61	1062.87	1066.99	1070.7	1074.34
308.15 K, x1 = 0.9735	1044.8	1049.73	1054.59	1059.21	1063.67	1067.93	1072.03	1075.71	1079.36
308.15 K, x1 = 1	1049.91	1054.84	1059.69	1064.3	1068.73	1073	1077.1	1080.78	1084.38
